From article PMC5812247, “Engineering thermal stability and solvent tolerance of the soluble quinoprotein PedE from Pseudomonas putida KT2440 with a heterologous whole‐cell screening approach” (Microbial Biotechnology, 2017)

Target: T1, PedE (Pseudomonas putida, UniProt Q88JH5)
T1 construct: C-terminal 6xHis tag, expressed in E. coli BL21(DE3), purified by IMAC, PQQ/Ca2+-dependent periplasmic enzyme
T1 sequence (Q88JH5 34-631): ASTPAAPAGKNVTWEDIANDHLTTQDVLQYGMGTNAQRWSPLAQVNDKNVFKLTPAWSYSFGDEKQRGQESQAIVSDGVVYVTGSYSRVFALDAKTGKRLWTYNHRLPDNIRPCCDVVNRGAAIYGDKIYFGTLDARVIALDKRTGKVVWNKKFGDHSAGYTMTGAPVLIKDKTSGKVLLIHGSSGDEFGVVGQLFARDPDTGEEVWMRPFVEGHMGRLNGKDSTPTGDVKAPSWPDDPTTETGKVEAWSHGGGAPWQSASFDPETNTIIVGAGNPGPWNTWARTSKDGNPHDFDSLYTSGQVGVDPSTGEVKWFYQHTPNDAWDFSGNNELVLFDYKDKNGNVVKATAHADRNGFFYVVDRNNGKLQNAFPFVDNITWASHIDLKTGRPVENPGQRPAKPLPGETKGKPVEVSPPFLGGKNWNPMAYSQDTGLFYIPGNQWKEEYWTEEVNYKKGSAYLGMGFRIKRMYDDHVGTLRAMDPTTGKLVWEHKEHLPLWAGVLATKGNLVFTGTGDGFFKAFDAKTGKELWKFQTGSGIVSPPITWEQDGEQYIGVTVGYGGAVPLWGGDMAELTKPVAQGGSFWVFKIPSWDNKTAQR
Assay: residual activity after […] h at […]°C, apo vs PQQ/CaCl2-reconstituted enzyme
Type: biochemical
Settings: reconstitution with 10 μM PQQ and 10 mM CaCl2, Tris pH 7.5; ethanol 10 mM as substrate

## O=C(O)c1cc(C(=O)O)c2c(n1)C(=O)C(=O)c1cc(C(=O)O)[nH]c1-2 [PQQ]
  residual activity after 1 h at 45°C, apo vs PQQ/CaCl2-reconstituted enzyme: purified apo‐form of PedE is much less thermostable compared with the PQQ reconstituted form
